Patent publication US10174037B2, “Dihydropyrazolopyrimidinone compounds as PDE2 inhibitors” (Merck Sharp & Dohme Corp., priority 2015, dated 2019)
Where two headings read alike, the source gives them in different places.

Target: Rhesus PDE2A3 (Macaca mulatta, UniProt B3VTJ2)
Test: PDE2 fluorescence polarization (IMAP FP) assay, rhesus PDE2A3
Assay type: biochemical, rhesus macaque
Method: A Labcyte Echo 555 (Labcyte, Sunnyvale, Calif.) is used to dispense 200 nL from each well of the titration plate to the 384 well assay plate. Ten microliters of a solution of enzyme (1/2000 final dilution from aliquots; sufficient to produce 20% substrate conversion) was added to the assay plate. Next 10 uL of a separate solution of the substrate FAM-labeled cAMP (50 nM final concentration product # R7506 from Molecular Devices) and the activator cGMP (1 uM final concentration), prepared in the assay buffer (10 mM Tris HCl, pH 7.2, 10 mM MgCl2, 0.05% NaN3 0.01% Tween-20, and 1 mM DTT) was added to the assay plate and shaken to mix. The reaction is allowed to proceed at room temperature for 60 minutes. A binding solution is then made from the kit components, comprised of 80% Solution A, 20% Solution B and binding reagent at a volume of 1/600 the total binding solution. The enzymatic reaction is stopped by addition of 60 μL of the binding solution to each well of the assay plates and the plates are sealed and shaken for 30 seconds. The plate was incubated at room temperature for at least one hour prior to determining the fluorescence polarization (FP). The parallel and perpendicular fluorescence of each well of the plate was measured using a Tecan Genios Pro plate reader (Tecan, Switzerland) or Perkin Elmer EnVision™ plate reader (Waltham, Mass.). Fluorescence polarization (mP) was calculated from the parallel (S) and perpendicular (P) fluorescence of each sample well and the analogous values for the median control well, containing only substrate (So and Po), using the following equation: Polarization (mP)=1000*(S/So−P/Po)/(S/So+P/Po).
Dose-inhibition profiles for each compound were characterized by fitting the mP data to a four-parameter equation given below.
An apparent (KM) for FAM-labeled cAMP of ˜10 uM was used.

[1] = Lab B, read-out: Rhesus PDE2 Ki (nM) Lab B
[2] = Lab A, read-out: Rhesus PDE2 Ki (nM) Lab A

Rhesus PDE2A3, sequence (B3VTJ2 1-941): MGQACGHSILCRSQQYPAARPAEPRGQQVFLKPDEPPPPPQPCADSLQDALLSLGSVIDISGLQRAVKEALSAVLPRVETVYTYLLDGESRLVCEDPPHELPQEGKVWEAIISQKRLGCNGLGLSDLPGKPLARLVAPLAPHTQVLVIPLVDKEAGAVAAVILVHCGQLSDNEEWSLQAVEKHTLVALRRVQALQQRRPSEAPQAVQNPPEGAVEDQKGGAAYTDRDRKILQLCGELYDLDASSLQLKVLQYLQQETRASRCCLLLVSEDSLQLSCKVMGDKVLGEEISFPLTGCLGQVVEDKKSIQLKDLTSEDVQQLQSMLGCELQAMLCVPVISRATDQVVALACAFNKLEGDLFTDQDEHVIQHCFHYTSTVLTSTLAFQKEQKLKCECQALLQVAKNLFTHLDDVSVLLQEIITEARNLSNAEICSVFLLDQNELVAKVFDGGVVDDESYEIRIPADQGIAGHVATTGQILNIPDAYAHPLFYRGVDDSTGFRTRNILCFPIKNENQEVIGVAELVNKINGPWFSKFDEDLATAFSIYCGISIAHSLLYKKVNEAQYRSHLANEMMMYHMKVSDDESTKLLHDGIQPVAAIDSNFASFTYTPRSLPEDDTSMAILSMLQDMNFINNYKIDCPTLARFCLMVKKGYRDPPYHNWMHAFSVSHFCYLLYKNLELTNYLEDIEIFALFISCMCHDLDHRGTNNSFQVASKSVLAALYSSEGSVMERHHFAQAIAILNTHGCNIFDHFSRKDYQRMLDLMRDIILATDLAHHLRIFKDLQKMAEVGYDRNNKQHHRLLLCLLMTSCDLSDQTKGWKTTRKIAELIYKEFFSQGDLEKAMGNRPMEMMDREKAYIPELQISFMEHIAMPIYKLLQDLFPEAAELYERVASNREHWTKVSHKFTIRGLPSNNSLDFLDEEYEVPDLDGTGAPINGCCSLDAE

Row | Compound | Ki [1] | Ki [2]
1 | CC(c1ccc(C(C)(C)C)cc1)n1nc(CC(F)(F)F)c2c(=O)[nH]c(O)nc21 (single isomer, unassigned) [Example 237, (S)- or (R)-1-(1-(4-tert-Butylphenyl)ethyl)-6-hydroxy-3-(2,2,2-trifluoroethyl)-1H-pyrazolo[3,4-d]pyrimidin-4(5H)-one] | 494 nM | –
2 | CC(C)(C)C(c1ccc(C(F)(F)F)cc1)n1nc(C(F)F)c2c(=O)[nH]c(O)nc21 (single isomer, unassigned) [Example 284, (S)- or (R)-3-(Difluoromethyl)-1-(2,2-dimethyl-1-(4-(trifluoromethyl)phenyl)propyl)-6-hydroxy-1H-pyrazolo[3,4-d]pyrimidin-4(5H)-one] | 206 nM | –
3 | CC(C)(C)C(c1ccc(C(F)(F)F)cc1)n1nc(CC(F)(F)F)c2c(=O)[nH]c(O)nc21 (single isomer, unassigned) [Example 263, (S)- or (R)-1-(2,2-Dimethyl-1-(4-(trifluoromethyl)phenyl)propyl)-6-hydroxy-3-(2,2,2-trifluoroethyl)-1H-pyrazolo[3,4-d]pyrimidin-4(5H)-one] | 5890 nM | –
4 | O=c1[nH]c(O)nc2c1c(CO)nn2C(CC(F)(F)F)c1ccc(C(F)(F)F)cc1 (single isomer, unassigned) [Example 23] | ~2700 nM | –
5 | O=c1[nH]c(O)nc2c1c(CO)nn2Cc1ccc(C(F)(F)F)cc1 [Example 9, 6-Hydroxy-3-(hydroxymethyl)-1-[4-(trifluoromethyl)benzyl]-1,5-dihydro-4H-pyrazolo[3,4-d]pyrimidin-4-one] | – | ~548 nM
6 | CC(c1ccc(C(F)(F)F)cc1)n1nc(C(F)(F)C(F)(F)F)c2c(=O)[nH]c(O)nc21 (single isomer, unassigned) [Example 267, (S)- or (R)-6-Hydroxy-3-(perfluoroethyl)-1-(1-(4-(trifluoromethyl)phenyl)ethyl)-1H-pyrazolo[3,4-d]pyrimidin-4(5H)-one] | 448 nM | –
7 | CC(C)C(c1ccc(OC(F)(F)F)c(F)c1)n1nc(CC(F)(F)F)c2c(=O)[nH]c(O)nc21 (single isomer, unassigned) [Example 264, (R)- or (S)-1-(1-(3-Fluoro-4-(trifluoromethoxy)phenyl)-2-methylpropyl)-6-hydroxy-3-(2,2,2-trifluoroethyl)-1H-pyrazolo[3,4-d]pyrimidin-4(5H)-one] | 600 nM | –
8 | CC(c1ccc(S(F)(F)(F)(F)F)cc1)n1nc(CO)c2c(=O)[nH]c(O)nc21 (single isomer, unassigned) [Example 20, (R)- or (S)-6-Hydroxy-3-(hydroxymethyl)-1-{1-[4-(pentafluorosulfanyl)phenyl]ethyl}-1,5-dihydro-4H-pyrazolo[3,4-d]pyrimidin-4-one] | – | ~684 nM
9 | CC(C)(C)C(c1ccc(C(F)(F)F)cc1)n1nc(CO)c2c(=O)[nH]c(O)nc21 (single isomer, unassigned) [Example 29, (R)- or (S)-1-(2,2-Dimethyl-1-(4-(trifluoromethyl)phenyl)propyl)-6-hydroxy-3-(hydroxymethyl)-1H-pyrazolo[3,4-d]pyrimidin-4(5H)-one] | 220 nM | –
10 | CC(C)(C)C(c1ccc(C(F)(F)F)c(F)c1)n1nc(CO)c2c(=O)[nH]c(O)nc21 (single isomer, unassigned) [Example 24] | ~2270 nM | –
11 | O=c1[nH]c(O)nc2c1c(CO)nn2C(CC(F)(F)F)c1ccc(C(F)(F)F)cc1 (single isomer, unassigned) [Example 22] | 253 nM | –
12 | CC(C)(C)C(c1ccc(C(F)(F)F)cc1)n1nc(CO)c2c(=O)[nH]c(O)nc21 (single isomer, unassigned) [Example 30, (S)- or (R)-1-(2,2-Dimethyl-1-(4-(trifluoromethyl)phenyl)propyl)-6-hydroxy-3-(hydroxymethyl)-1H-pyrazolo[3,4-d]pyrimidin-4(5H)-one] | 2040 nM | –
13 | Cc1nn(Cc2ccc(C(F)(F)F)cc2)c2nc(O)[nH]c(=O)c12 [Example 61, 6-Hydroxy-3-methyl-1-[4-(trifluoromethyl)benzyl]-1,5-dihydro-4H-pyrazolo[3,4-d]pyrimidin-4-one] | – | ~951 nM
14 | O=c1[nH]c(O)nc2c1c(CC(F)(F)F)nn2C(c1ccc(C(F)(F)F)cc1)C1CC1 (single isomer, unassigned) [Example 228] | 210 nM | –
15 | CC(C)(C)C(c1ccc(C(F)(F)F)cc1)n1nc(C(F)F)c2c(=O)[nH]c(O)nc21 (single isomer, unassigned) [Example 283, (R)- or (S)-3-(Difluoromethyl)-1-(2,2-dimethyl-1-(4-(trifluoromethyl)phenyl)propyl)-6-hydroxy-1H-pyrazolo[3,4-d]pyrimidin-4(5H)-one] | ~1510 nM | –
16 | CC(C)(C)c1ccc(C(C2CC2)n2nc(CC(F)(F)F)c3c(=O)[nH]c(O)nc32)cc1 (single isomer, unassigned) [Example 251, (S)- or (R)-1-((4-tert-Butylphenyl)(cyclopropyl)methyl)-6-hydroxy-3-(2,2,2-trifluoroethyl)-1H-pyrazolo[3,4-d]pyrimidin-4(5H)-one] | 363 nM | –

Now from value to compound:

Row | Ki [1] | Ki [2] | Compound
17 | 123 nM | – | CC(C)(C)C(c1ccc(C(F)(F)F)cc1)n1nc(CF)c2c(=O)[nH]c(O)nc21 (single isomer, unassigned) [Example 51]
18 | 199 nM | – | CC(C)C(c1ccc(C(F)(F)F)cc1)n1nc(CC(F)(F)F)c2c(=O)[nH]c(O)nc21 (single isomer, unassigned) [Example 241, (S)- or (R)-6-Hydroxy-1-(2-methyl-1-(4-(trifluoromethyl)phenyl)propyl)-3-(2,2,2-trifluoroethyl)-1H-pyrazolo[3,4-d]pyrimidin-4(5H)-one]
19 | 180 nM | – | CC(c1ccc(C(F)(F)F)c(F)c1)n1nc(CC(F)(F)F)c2c(=O)[nH]c(O)nc21 (single isomer, unassigned) [Example 234, (R)- or (S)-1-(1-(3-Fluoro-4-(trifluoromethyl)phenyl)ethyl)-6-hydroxy-3-(2,2,2-trifluoroethyl)-1H-pyrazolo[3,4-d]pyrimidin-4(5H)-one]
20 | 206 nM | – | C[C@@H](c1ccc(C(F)(F)F)cc1)n1nc(COCc2ccccc2)c2c(=O)[nH]c(O)nc21 [Example 303, (S)-3-((Benzyloxy)methyl)-6-hydroxy-1-(1-(4-(trifluoromethyl)phenyl)ethyl)-1,5-dihydro-4H-pyrazolo[3,4-d]pyrimidin-4-one]
21 | 0.5 nM | – | CCC(c1ccc(CC(F)(F)F)c(F)c1)n1nc(CO)c2c(=O)[nH]c(N(C)C)nc21 (single isomer, unassigned) [Example 96, (R)- or (S)-6-(Dimethylamino)-1-(1-(3-fluoro-4-(2,2,2-trifluoroethyl)phenyl)propyl)-3-(hydroxymethyl)-1H-pyrazolo[3,4-d]pyrimidin-4(5H)-one]
22 | 148 nM | – | CC(C)C(c1ccc(C(F)(F)F)c(F)c1)n1nc(CC(F)(F)F)c2c(=O)[nH]c(O)nc21 (single isomer, unassigned) [Example 259]
23 | 113 nM | – | CC(c1ccc(OC(F)(F)F)cc1)n1nc(C(F)F)c2c(=O)[nH]c(O)nc21 (single isomer, unassigned) [Example 273, (R)- or (S)-3-(Difluoromethyl)-6-hydroxy-1-(1-(4-(trifluoromethoxy)phenyl)ethyl)-1H-pyrazolo[3,4-d]pyrimidin-4(5H)-one]
24 | 132 nM | – | CC(C)C(c1ccc(OC(F)(F)F)cc1)n1nc(CC(F)(F)F)c2c(=O)[nH]c(O)nc21 (single isomer, unassigned) [Example 233, (S)- or (R)-6-Hydroxy-1-(2-methyl-1-(4-(trifluoromethoxy)phenyl)propyl)-3-(2,2,2-trifluoroethyl)-1H-pyrazolo[3,4-d]pyrimidin-4(5H)-one]
25 | 85 nM | – | O=c1[nH]c(O)nc2c1c(C(F)F)nn2C(c1ccc(C(F)(F)F)cc1)C1CC1 (single isomer, unassigned) [Example 280, (S)- or (R)-1-(Cyclopropyl(4-(trifluoromethyl)phenyl)methyl)-3-(difluoromethyl)-6-hydroxy-1H-pyrazolo[3,4-d]pyrimidin-4(5H)-one]
26 | 17 nM | – | O=c1[nH]c(O)nc2c1c(CO)nn2C(c1ccc(C(F)(F)F)cc1)C1CC1 (single isomer, unassigned) [Example 15, (S) or (R)-1-(Cyclopropyl(4-(trifluoromethyl)phenyl)methyl)-6-hydroxy-3-(hydroxymethyl)-1H-pyrazolo[3,4-d]pyrimidin-4(5H)-one]
27 | 0.54 nM | – | CCC(c1ccc(C(F)F)c(F)c1)n1nc(CO)c2c(=O)[nH]c(N(C)C)nc21 (single isomer, unassigned) [Example 147]
28 | 192 nM | – | CC(C)C(c1ccc(OC(F)(F)F)cc1)n1nc(CC(F)(F)F)c2c(=O)[nH]c(O)nc21 (single isomer, unassigned) [Example 232, (R)- or (S)-6-Hydroxy-1-(2-methyl-1-(4-(trifluoromethoxy)phenyl)propyl)-3-(2,2,2-trifluoroethyl)-1H-pyrazolo[3,4-d]pyrimidin-4(5H)-one]
29 | 192 nM | – | CC(C)C(c1ccc(C(F)(F)F)cc1)n1nc(CO)c2c(=O)[nH]c(O)nc21 (single isomer, unassigned) [Example 12]
